Assay [1] has as its system KPL-4 xenograft (HER2-positive breast cancer). The assay is described as follows: in vivo breast cancer tumor model experiment, tumor volume. Further details: species or system BALB/cSlc-nu/nu nude mice. As for the experimental part: The KPL-4 cell line was maintained in DMEM (low glucose) (FUJIFILM Wako Pure Chemical Corporation, Osaka, Japan) supplemented with 10% FBS, 100 U/mL penicillin, and 100 μg/mL streptomycin (#15140122, Thermo Fisher Scientific, Waltham, MA, USA) (Kurebayashi J, Otsuki T, Tang CK, et al. Isolation and characterization of a new human breast cancer cell line, KPL-4, expressing the Erb B family receptors and interleukin-6. Br J Cancer. 1999; 79: 707-717. doi:10.1038/sj.bjc.6690114). The KPL-4 cells (7,500,000) were subcutaneously transplanted into the thigh of BALB/cSlc-nu/nu nude mice (Sankyo Lab Service, Inc., Tokyo, Japan). Proliferation of the subcutaneous tumor was monitored by measuring a tumor volume (0.5×length×width^2) using Vernier calipers, and the body weight of the animals was then monitored as an indicator of treatment-related toxicity.
In this study, in order to evaluate tumor recurrence, the observation period was set to be […] after the initial treatment. […] Finally, the xenograft mouse models were sacrificed at 97 days after the treatment, namely, at 19 days or more after the second treatment.
Preparation of ZHER2:342-Cupid-His and Psyche-Ax-SiPC was as previously reported (Yamatsugu K, Katoh H, Yamashita T, et al., Antibody mimetic drug conjugate manufactured by high-yield Protein Expr Purif. 2022; 192: 106043. doi:10.1016/j.pep.2021 106043). Briefly speaking, Psyche-Ax-SiPC solubilized in dimethyl sulfoxide at a concentration of 5 mM was preserved as a stock solution at −80° C. In order to prepare a complex, ZHER2:342-Cupid-His and Psyche-Ax-SiPC were mixed with each other at a molar ratio of 1:2 in a dark place on ice for 10 minutes. A concentrate of ZHER2:342-Cupid-His-Ax-SiPC was diluted using a phosphate-buffered saline.
Twenty hours after the injection, the mice in the ZHER2:342-Cupid-His-Ax-SiPC group were irradiated with a 690-nm light emitting diode light (Yamato Scientific Co., Ltd., Tokyo, Japan) at 230 J/cm^−2. Forty-eight hours after the initial light irradiation, the tumor was irradiated again in the same manner as that described above.

Assay [2] relates to KPL-4 xenograft tumor site, skin and major organs. The assay is described as follows: pathological analysis (H & E histology) of xenograft mouse models. The settings on record: 97th day. The assay is classed as in vivo, BALB/cSlc-nu/nu nude mice. From the text:
Skin samples from xenograft tumor sites, and samples from other important organs including lung, heart, kidney, liver and gastrointestinal tract, were obtained from the mice. […] Stained slides were dehydrated again by being immersed in ethanol and then being immersed in xylene. […] The H & E-stained slides were histologically examined using the OLYMPUS cellSens Standard system (OLYMPUS, Tokyo, Japan).

Here are results for one substance from US20240190994A1, “FUSION PROTEIN BETWEEN ANTIGEN-BINDING MOLECULE AND STREPTAVIDIN VARIANT” (The University of Tokyo, priority 2021, published 2024).

In the case of trastuzumab emtansine [Kadcyla], in assay [1] (Kadcyla 300 μg/mouse, ZHER2:342-Cupid-His-Ax-SiPC 150 μg/mouse with 690-nm light, n=10, FIG. 11), the “tumor size after the first treatment” value was “a reduction in the tumor size was observed”. The “cases with tumor volume decreased to 0 mm^3” value in assay [1] (at 21 days after the injection, n=10) was found to be 1 case. In addition, the “course of tumor volume after the treatment” value in assay [1] (single administration, FIGS. 11B-D) was “gradually decreased”. The “tumor size in the long term after single treatment” value in assay [1] (up to 2 months after the injection) was “steady decrease in the tumor size”. The pathological response entry in assay [2] is reported as “pathological complete remission was achieved”. Moreover, in assay [2] (FIG. 13 and FIG. 14), the “metastatic tumors in lymph nodes or distant organs” value was “No metastatic tumors were observed”. Moreover, the “residual tumor cells in the subcutaneous region around the xenograft tumor site” value in assay [2] (n=10, FIG. 13 and FIG. 14) is “no residual tumor cells were observed”.
